Experimental data: patent US20250340532A1, “HETEROCYCLIC COMPOUND CCR4 INHIBITOR AND USER THEREOF” (Xizang Haisco Pharmaceutical Co., Ltd., priority 2022, published 2025)

Biological target: T1, CCR4 (Homo sapiens, UniProt P51679)
T1 construct: expressed in transfected cells; host or cells: HEK293
T1 sequence (P51679 1-360): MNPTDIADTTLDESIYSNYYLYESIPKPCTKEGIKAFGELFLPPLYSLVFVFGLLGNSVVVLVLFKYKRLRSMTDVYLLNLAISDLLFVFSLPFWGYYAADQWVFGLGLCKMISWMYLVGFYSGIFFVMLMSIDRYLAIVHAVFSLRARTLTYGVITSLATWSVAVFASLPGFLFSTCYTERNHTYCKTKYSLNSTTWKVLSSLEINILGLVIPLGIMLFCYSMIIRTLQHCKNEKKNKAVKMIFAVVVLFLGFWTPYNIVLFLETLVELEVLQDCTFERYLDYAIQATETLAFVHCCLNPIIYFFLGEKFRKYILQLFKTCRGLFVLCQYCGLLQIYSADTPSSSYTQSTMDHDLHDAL
Test: Calcium flow detected by FLIPR
Assay type: cell-based
Details: CCR4/HEK293 cells, agonist CCL17, Fluo-4 calcium signal
Experimental: CCR4/HEK293 cells were added to a 384-well cell culture plate (Greiner #781946) at a rate of 20 μL/well (20,000 cells/well) and incubated overnight in a 37° C., 5% CO2 incubator (Incubator, Thermo). On the second day, the 384-well cell culture plate was taken out of the incubator and the culture medium was removed; Then, 20 μL of detection buffer and 20 μL of 2X Fluo-4 Direct™ (Invitrogen, Cat #F10471) were added. Then, compounds were added at 10 μL/well (compounds were subjected to 4-fold serial dilution, and the highest detection concentration was 10 μM), and the cells were incubated in a 37° C., 5% CO2 incubator for 50 min, and then incubated at room temperature for 10 min. The 384-well culture plate was placed in FLIPR ([…]), 10 μL of 6X agonist CCL17 was added by using an automatic loader, and the fluorescence signal was read immediately. The mean and standard error (Mean±SEM) were statistically analyzed using Graphpad Prism software, and the IC50 value was calculated.
The experimental results are shown in Table 3, where A represents IC50<100 nm; B represents 100 nM≤IC50<500 nM, and C represents 500 nM≤IC50.

Compound | IC50 [nM]
Cc1nc(N2CC(C3CN(CC(C)(C)O)CCO3)C2)nc(N[C@H](C)c2ccc(Cl)cc2Cl)c1Cl (stereo partly drawn) [Compound 35] | < 100
Cc1nc(N2CC([C@H]3CCCN([C@H]4C[C@](C)(C(=O)O)C4)C3)C2)nc2c1CCCN2C(C)c1ccc(Cl)cc1Cl (stereo partly drawn) [Compound 36] | 100 to 500
C#Cc1ccc(C(C)Nc2nc(N3CC([C@H]4CCCN(CCO)C4)C3)nc(C)c2Cl)c(Cl)c1 (stereo partly drawn) [Compound 38] | 100 to 500
C[C@@H](Nc1nc(N2CC([C@H]3CCCN([C@H]4C[C@](C)(C(=O)O)C4)C3)C2)c2ccccc2n1)c1ccc(Cl)cc1Cl [Compound 40] | < 100
C[C@@H](Nc1nc2c(c(N3CC([C@H]4CCCN([C@H]5C[C@](C)(C(=O)O)C5)C4)C3)n1)COC2)c1ccc(Cl)cc1Cl [Compound 45] | 100 to 500
C[C@@H](Nc1nc(N2CC([C@H]3CCCN([C@H]4C[C@](C)(C(=O)O)C4)C3)C2)c2occc2n1)c1ccc(Cl)cc1Cl [Compound 51] | < 100
Cc1nc(N2CC(C3CN(C4CC(C)(C#N)C4)CCO3)C2)nc(N[C@H](C)c2ccc(Cl)cc2Cl)c1Cl (stereo partly drawn) [Compound 70] | 100 to 500
Cc1nc(N2CC(F)(C3CN(CCC(=O)O)CCO3)C2)nc(N[C@H](C)c2ccc(Cl)cc2Cl)c1Cl (stereo partly drawn) [Compound 88] | < 100
C[C@@H](Nc1cc(N2CCC(C3CN(CCO)CCO3)CC2)nc2ccnn12)c1ccc(Cl)cc1Cl (stereo partly drawn) [Compound 112] | < 100

The remaining lines, values ahead:

IC50 [nM] | Compound
< 100 | Cc1cc(N2CC([C@H]3CCCN([C@H]4C[C@](C)(C(=O)O)C4)C3)C2)cc(N[C@H](C)c2ccc(Cl)cc2Cl)n1 [Compound 39]
100 to 500 | C[C@@H](Nc1nc(N2CC([C@H]3CCCN([C@H]4C[C@](C)(C(=O)O)C4)C3)C2)c2ccn(C)c2n1)c1ccc(Cl)cc1Cl [Compound 43]
100 to 500 | C[C@@H](Nc1nc(N2CC([C@H]3CCCN([C@H]4C[C@](C)(C(=O)O)C4)C3)C2)c2c(ccn2C)n1)c1ccc(Cl)cc1Cl [Compound 44]
100 to 500 | C[C@@H](Nc1cc(N2CC([C@H]3CCCN([C@H]4C[C@](C)(C(=O)O)C4)C3)C2)nc(C(F)(F)F)n1)c1ccc(Cl)cc1Cl [Compound 52]
< 100 | C[C@@H](Nc1cc(N2CC([C@H]3CCCN([C@H]4C[C@](C)(C(=O)O)C4)C3)C2)nc2nccn12)c1ccc(Cl)cc1Cl [Compound 55]
100 to 500 | Cc1nc(N[C@H](C)c2ccc(Cl)cc2Cl)nc(N2CC([C@H]3CCCN([C@H]4C[C@](C)(C(=O)O)C4)C3)C2)c1Cl [Compound 56]
